Data taken from paper PMC3961306, “Comparison of the Cancer Gene Targeting and Biochemical Selectivities of All Targeted Kinase Inhibitors Approved for Clinical Use” (PLoS ONE, 2014).

Experiments:
Experiment in all cases: Kinase profiling in a biochemical assay panel (mobility shift assays and ELISA), %-inhibition at 1 μM; selectivity entropy
[1] = target: T1, panel of more than 300 wild-type and mutant kinases (313 kinase panel) (Homo sapiens, UniProt O15111); details: kinase IKKα; compound at 1 μM
T1 sequence (O15111 1-745): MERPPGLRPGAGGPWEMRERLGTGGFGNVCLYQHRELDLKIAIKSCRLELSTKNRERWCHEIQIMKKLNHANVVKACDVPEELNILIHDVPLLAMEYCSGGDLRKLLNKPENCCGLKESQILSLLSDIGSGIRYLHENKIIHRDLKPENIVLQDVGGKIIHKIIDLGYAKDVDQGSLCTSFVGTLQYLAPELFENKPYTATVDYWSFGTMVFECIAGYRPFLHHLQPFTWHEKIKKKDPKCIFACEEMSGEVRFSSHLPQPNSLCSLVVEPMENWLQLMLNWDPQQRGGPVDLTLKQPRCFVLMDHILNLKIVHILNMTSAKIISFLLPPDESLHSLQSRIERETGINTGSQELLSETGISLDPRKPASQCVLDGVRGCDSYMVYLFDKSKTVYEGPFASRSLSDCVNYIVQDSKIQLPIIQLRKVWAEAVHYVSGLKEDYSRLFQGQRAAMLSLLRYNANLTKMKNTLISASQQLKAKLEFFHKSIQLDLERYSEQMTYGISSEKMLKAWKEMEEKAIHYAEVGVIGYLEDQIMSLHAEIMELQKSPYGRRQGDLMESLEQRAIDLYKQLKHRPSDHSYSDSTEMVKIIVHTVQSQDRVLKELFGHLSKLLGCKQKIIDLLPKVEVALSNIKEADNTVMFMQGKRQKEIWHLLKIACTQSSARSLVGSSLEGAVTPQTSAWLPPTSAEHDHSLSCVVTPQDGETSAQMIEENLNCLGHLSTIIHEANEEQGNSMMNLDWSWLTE

[2] = target: panel of more than 300 wild-type and mutant kinases (313 kinase panel) (Homo sapiens, UniProt P23458); details: kinase JAK1; compound at 1 μM
[3] = target: panel of more than 300 wild-type and mutant kinases (313 kinase panel) (Homo sapiens, UniProt P24941); details: 1 μM compound; for %-inhibition, CDK2/CycA2: kinase CDK2/CycA2; for %-inhibition, CDK2/CycE1: kinase CDK2/CycE1
[4] = target: panel of more than 300 wild-type and mutant kinases (313 kinase panel) (Homo sapiens, UniProt P29597); details: kinase TYK2; compound at 1 μM
Sequence of panel of more than 300 wild-type and mutant kinases (313 kinase panel) (Homo sapiens, UniProt P29597) (P29597 whole entry, change not shown): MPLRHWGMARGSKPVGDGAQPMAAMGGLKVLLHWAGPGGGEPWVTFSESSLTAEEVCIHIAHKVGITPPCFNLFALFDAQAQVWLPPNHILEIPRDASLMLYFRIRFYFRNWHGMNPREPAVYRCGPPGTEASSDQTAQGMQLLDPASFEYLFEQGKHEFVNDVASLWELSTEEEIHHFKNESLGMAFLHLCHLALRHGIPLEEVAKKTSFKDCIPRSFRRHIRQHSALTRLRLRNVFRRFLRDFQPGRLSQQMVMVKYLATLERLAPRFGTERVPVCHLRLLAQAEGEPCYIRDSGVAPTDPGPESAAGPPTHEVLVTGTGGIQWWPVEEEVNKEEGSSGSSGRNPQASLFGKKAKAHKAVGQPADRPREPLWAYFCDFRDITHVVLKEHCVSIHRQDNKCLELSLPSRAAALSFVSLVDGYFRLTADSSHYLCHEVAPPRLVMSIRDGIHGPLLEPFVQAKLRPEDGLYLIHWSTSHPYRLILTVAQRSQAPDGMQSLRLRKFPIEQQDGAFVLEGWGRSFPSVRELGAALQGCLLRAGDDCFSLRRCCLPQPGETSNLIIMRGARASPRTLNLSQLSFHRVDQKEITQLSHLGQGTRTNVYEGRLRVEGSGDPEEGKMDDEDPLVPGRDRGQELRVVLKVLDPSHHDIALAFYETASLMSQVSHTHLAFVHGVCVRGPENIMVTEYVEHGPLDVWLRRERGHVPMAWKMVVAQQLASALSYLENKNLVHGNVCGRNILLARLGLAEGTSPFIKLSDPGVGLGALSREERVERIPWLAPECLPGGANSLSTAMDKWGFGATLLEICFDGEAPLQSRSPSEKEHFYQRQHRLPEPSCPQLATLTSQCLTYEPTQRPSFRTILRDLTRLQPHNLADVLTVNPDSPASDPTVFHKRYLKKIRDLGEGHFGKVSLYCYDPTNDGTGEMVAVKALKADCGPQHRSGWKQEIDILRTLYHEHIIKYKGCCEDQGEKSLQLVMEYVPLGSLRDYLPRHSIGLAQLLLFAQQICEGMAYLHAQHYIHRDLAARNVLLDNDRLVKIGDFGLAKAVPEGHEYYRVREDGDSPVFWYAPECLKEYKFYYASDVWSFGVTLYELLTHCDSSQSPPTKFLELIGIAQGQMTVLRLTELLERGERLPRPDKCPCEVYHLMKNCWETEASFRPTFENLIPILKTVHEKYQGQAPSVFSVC

[5] = target: panel of more than 300 wild-type and mutant kinases (313 kinase panel) (Homo sapiens, UniProt P78368); details: kinase CK1γ2; 1 μM compound
[6] = target: panel of more than 300 wild-type and mutant kinases (313 kinase panel) (Homo sapiens, UniProt Q05655); details: kinase PKCδ; 1 μM
[7] = target: panel of more than 300 wild-type and mutant kinases (313 kinase panel) (Homo sapiens, UniProt Q15303)
Sequence of panel of more than 300 wild-type and mutant kinases (313 kinase panel) (Homo sapiens, UniProt Q15303) (Q15303 26-1308, change not shown): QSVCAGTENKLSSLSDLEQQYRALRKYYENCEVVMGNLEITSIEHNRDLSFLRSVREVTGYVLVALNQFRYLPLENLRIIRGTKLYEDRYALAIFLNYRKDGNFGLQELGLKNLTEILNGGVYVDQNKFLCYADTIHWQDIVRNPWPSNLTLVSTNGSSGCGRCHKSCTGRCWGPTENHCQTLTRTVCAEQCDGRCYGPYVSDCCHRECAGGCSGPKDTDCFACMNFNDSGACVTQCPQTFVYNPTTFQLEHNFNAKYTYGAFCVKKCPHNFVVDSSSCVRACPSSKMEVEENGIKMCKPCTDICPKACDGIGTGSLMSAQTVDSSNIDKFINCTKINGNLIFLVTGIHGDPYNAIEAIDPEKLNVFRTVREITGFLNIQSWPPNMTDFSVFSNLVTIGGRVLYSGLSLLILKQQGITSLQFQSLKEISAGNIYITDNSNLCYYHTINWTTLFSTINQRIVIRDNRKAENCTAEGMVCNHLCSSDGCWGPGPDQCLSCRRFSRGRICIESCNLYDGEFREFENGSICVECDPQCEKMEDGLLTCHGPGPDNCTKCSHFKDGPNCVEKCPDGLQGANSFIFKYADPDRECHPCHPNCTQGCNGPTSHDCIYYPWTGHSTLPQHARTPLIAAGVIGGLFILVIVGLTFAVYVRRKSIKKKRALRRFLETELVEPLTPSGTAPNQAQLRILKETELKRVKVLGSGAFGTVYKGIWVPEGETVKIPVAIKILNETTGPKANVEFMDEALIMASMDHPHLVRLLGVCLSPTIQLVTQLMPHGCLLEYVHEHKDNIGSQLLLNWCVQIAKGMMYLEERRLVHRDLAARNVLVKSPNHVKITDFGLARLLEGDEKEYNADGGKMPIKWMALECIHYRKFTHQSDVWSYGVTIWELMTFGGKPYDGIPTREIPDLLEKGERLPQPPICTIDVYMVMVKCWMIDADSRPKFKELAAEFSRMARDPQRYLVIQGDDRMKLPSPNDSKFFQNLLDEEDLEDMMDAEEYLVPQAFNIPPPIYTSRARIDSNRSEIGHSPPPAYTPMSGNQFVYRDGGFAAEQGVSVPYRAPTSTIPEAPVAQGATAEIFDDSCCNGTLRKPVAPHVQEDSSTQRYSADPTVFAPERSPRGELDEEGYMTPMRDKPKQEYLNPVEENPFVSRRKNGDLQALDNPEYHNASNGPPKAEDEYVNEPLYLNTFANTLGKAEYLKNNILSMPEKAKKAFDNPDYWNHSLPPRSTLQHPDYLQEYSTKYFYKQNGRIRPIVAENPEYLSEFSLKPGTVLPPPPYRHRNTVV

[8] = target: panel of more than 300 wild-type and mutant kinases (313 kinase panel) (Homo sapiens, UniProt Q16539); details: kinase p38α; 1 μM
Sequence of panel of more than 300 wild-type and mutant kinases (313 kinase panel) (Homo sapiens, UniProt Q16539) (Q16539 whole entry, change not shown): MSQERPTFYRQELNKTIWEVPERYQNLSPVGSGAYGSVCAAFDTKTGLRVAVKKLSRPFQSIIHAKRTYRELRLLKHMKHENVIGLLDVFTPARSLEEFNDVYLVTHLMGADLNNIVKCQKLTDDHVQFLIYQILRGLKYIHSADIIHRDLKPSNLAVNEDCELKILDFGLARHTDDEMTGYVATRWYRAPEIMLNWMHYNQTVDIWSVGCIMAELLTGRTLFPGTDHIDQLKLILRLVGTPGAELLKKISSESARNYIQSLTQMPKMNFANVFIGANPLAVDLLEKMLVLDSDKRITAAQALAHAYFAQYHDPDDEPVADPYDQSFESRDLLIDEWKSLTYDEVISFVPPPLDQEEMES

[9] = target: T2, panel of more than 300 wild-type and mutant kinases (313 kinase panel) (Homo sapiens, UniProt Q96KB5); details: kinase PBK; 1 μM
T2 sequence (Q96KB5 1-322): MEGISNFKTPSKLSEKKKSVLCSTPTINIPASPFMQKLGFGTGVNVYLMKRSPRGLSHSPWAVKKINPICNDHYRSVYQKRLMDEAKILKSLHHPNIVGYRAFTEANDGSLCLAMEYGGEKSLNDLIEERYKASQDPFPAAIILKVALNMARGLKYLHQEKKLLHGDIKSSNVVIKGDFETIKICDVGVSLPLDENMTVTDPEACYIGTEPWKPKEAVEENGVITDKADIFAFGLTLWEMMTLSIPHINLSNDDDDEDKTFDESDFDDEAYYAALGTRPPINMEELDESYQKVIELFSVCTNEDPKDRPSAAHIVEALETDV

[10] = target: panel of more than 300 wild-type and mutant kinases (313 kinase panel) (Homo sapiens, UniProt Q9H1R3); details: kinase skMLCK; 1 μM
[11] = target: panel of more than 300 wild-type and mutant kinases (313 kinase panel) (Homo sapiens, UniProt Q9Y5S2); details: kinase MRCKβ; 1 μM
[12] = target: T3, panel of more than 300 wild-type and mutant kinases (313 kinase panel) (Homo sapiens, UniProt P45985); details: kinase MAP2K4; compound at 1 μM
T3 sequence (P45985 1-399): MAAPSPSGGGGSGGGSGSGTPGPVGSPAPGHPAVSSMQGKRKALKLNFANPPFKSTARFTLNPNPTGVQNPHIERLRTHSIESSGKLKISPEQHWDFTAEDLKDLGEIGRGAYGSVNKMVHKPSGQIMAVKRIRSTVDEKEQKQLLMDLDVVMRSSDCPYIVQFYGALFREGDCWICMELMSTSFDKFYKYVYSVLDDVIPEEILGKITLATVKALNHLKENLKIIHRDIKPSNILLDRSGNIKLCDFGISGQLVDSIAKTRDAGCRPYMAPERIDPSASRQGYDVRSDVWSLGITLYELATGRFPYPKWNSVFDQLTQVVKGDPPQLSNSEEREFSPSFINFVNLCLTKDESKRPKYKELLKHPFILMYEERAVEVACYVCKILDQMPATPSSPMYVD

Structure (SMILES) | %-inhibition of IKKα [1] [%] | %-inhibition of JAK1 [2] [%] | %-inhibition, CDK2/CycA2 [3] [%] | %-inhibition, CDK2/CycE1 [3] [%] | %-inhibition of TYK2 [4] [%] | %-inhibition, CK1γ2 [5] [%] | %-inhibition of PKCδ [6] [%] | %-inhibition of HER4 ([7]; kinase HER4, compound at 1 μM) [%] | %-inhibition of p38α [8] [%] | %-inhibition of PBK [9] [%] | %-inhibition of skMLCK [10] [%] | %-inhibition of MRCKβ [11] [%] | %-inhibition of MAP2K4 [12] [%] | %-inhibition of HER4 ([7]; 1 µM) [%]
Cc1ccc(C(=O)Nc2ccc(CN3CCN(C)CC3)c(C(F)(F)F)c2)cc1C#Cc1cnc2cccnn12 [ponatinib] | 27 | 99 | -9 | 9 | 66 | 0.169 | 50 | 101 | 101 | -14 | 36 | 1.18 | – | –
CC(C)(C)c1nc(-c2cccc(NS(=O)(=O)c3c(F)cccc3F)c2F)c(-c2ccnc(N)n2)s1 [dabrafenib] | – | 5.7 | – | – | 10 | – | -6 | 23 | – | 12 | 0.52 | -2.85 | -3 | –
COc1cc(Nc2c(C#N)cnc3cc(OCCCN4CCN(C)CC4)c(OC)cc23)c(Cl)cc1Cl [bosutinib] | 1.66 | -2 | – | – | -3.37 | -2.3 | 63 | 102 | 9 | -24 | 71 | 66 | – | –
Cc1nc(Nc2ncc(C(=O)Nc3c(C)cccc3Cl)s2)cc(N2CCN(CCO)CC2)n1 [dasatinib] | – | – | 5 | 12 | – | 20 | – | 103 | 91 | – | – | – | -3.71 | –
CCCS(=O)(=O)Nc1ccc(F)c(C(=O)c2c[nH]c3ncc(-c4ccc(Cl)cc4)cc23)c1F [vemurafenib] | -1.89 | 46 | -3 | -5 | 6 | 0.506 | -5 | 11 | 10 | -12 | 53 | -5 | – | –
N#CC[C@H](C1CCCC1)n1cc(-c2ncnc3[nH]ccc23)cn1 [ruxolitinib] | -2.5 | – | 2.48 | -12 | – | -0.393 | 2 | – | -2.16 | -19 | -4.71 | 20 | 10 | -1.9
COc1cc2c(Nc3ccc(Br)cc3F)ncnc2cc1OCC1CCN(C)CC1 [vandetanib] | -4.38 | -3.31 | -8 | -21 | -7 | -2 | -5.39 | – | 18 | -21 | 13 | -16 | -2.77 | –
CCN(CC)CCNC(=O)c1c(C)[nH]c(/C=C2\C(=O)Nc3ccc(F)cc32)c1C [sunitinib] | 0.813 | – | – | – | – | – | – | – | – | – | 91 | – | – | –
O=S(=O)(c1cccc2cnccc12)N1CCCNCC1 [fasudil] | 8 | -1.43 | 22 | 13 | 6 | 18 | 19 | -0.227 | -7 | -2.33 | -1.56 | – | -5 | –
C[C@@H](Oc1cc(-c2cnn(C3CCNCC3)c2)cnc1N)c1c(Cl)ccc(F)c1Cl [crizotinib] | -1.78 | 47 | – | -14 | 21 | – | -1.14 | -18 | -2.27 | -14 | – | -2 | -1.24 | –
CN(C)C/C=C/C(=O)Nc1cc2c(Nc3ccc(F)c(Cl)c3)ncnc2cc1O[C@H]1CCOC1 [afatinib] | – | – | – | – | – | – | – | – | – | -3 | – | – | – | –
Cc1ccc(Nc2nccc(N(C)c3ccc4c(C)n(C)nc4c3)n2)cc1S(N)(=O)=O [pazopanib] | -1.68 | 9 | -5 | -0.507 | 5.31 | -0.747 | -3 | 16 | 10 | -5 | – | 1.15 | – | –
